Several values for one entry are separate records, joined by “and”; a condition that tells them apart may be missing. Equal values may be shown once.
What was measured:
[1] = target: Tyrosine-protein kinase Lyn (Homo sapiens) (UniProt P07948); assay: Enzymatic radiometric [Km ATP] KinaseProfiler LeadHunter assay, kinase: Lyn, catalogue number: 14-510KP The assay has been performed by Eurofins Discovery.; conditions: ATP concentration 70.0 uM, Test compound concentration 10.0 uM
[2] = target: T1, Interleukin-1 receptor-associated kinase 4 (Homo sapiens) (UniProt Q9NWZ3); assay: Enzymatic radiometric [Km ATP] KinaseProfiler LeadHunter assay, kinase: IRAK4, catalogue number: 14-599KP The assay has been performed by Eurofins Discovery.; conditions: ATP concentration 200.0 uM, Test compound concentration 10.0 uM
T1 sequence (whole entry): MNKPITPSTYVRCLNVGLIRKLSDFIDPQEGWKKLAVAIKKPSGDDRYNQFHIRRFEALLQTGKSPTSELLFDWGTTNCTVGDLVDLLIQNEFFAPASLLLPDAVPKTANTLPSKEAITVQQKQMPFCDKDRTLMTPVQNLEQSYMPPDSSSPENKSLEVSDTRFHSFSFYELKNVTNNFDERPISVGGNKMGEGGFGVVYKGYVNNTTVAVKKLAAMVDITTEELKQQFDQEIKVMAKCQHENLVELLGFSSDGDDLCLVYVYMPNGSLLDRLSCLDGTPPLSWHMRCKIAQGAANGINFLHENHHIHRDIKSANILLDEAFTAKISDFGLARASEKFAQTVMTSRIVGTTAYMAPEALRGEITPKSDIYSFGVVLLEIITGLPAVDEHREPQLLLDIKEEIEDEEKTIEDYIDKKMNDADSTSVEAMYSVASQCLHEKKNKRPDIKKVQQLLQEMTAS

[3] = target: T2, Tyrosine-protein kinase receptor TYRO3 (Homo sapiens) (UniProt Q06418); assay: Enzymatic radiometric [Km ATP] KinaseProfiler LeadHunter assay, kinase: Rse, catalogue number: 14-535KP The assay has been performed by Eurofins Discovery.; conditions: ATP concentration 45.0 uM, Test compound concentration 10.0 uM
T2 sequence (whole entry): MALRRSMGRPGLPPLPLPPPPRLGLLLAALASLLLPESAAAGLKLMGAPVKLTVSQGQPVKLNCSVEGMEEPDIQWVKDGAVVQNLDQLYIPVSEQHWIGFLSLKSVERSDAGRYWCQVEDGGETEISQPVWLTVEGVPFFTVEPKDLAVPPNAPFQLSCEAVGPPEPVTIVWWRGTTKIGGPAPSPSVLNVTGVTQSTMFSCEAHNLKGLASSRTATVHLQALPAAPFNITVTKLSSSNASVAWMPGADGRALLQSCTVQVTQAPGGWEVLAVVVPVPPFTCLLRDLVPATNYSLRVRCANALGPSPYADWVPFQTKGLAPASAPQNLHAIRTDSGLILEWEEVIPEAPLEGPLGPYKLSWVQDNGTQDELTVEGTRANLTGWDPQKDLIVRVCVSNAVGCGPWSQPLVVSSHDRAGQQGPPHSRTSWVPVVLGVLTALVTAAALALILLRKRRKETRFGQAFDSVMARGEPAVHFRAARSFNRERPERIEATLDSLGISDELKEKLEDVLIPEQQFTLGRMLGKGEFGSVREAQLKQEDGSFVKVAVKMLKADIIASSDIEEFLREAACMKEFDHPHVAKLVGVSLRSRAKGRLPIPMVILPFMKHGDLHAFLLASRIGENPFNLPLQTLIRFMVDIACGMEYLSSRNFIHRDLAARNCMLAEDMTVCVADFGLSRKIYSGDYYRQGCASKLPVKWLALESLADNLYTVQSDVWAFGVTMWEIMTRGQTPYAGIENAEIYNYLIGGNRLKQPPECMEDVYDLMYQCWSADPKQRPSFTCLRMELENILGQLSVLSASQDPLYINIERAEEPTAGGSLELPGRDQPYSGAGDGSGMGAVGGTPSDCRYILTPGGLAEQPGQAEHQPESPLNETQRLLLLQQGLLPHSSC

[4] = target: Serine/threonine-protein kinase 10 (Homo sapiens) (UniProt O94804); assay: Enzymatic radiometric [Km ATP] KinaseProfiler LeadHunter assay, kinase: LOK, catalogue number: 14-686KP The assay has been performed by Eurofins Discovery.; conditions: ATP concentration 120.0 uM, Test compound concentration 10.0 uM
[5] = target: T3, cGMP-dependent protein kinase 1 (Homo sapiens) (UniProt Q13976); assay: Enzymatic radiometric [Km ATP] KinaseProfiler LeadHunter assay, kinase: PKG1-alpha, catalogue number: 14-688KP The assay has been performed by Eurofins Discovery.; conditions: ATP concentration 90.0 uM, Test compound concentration 10.0 uM
T3 sequence (whole entry): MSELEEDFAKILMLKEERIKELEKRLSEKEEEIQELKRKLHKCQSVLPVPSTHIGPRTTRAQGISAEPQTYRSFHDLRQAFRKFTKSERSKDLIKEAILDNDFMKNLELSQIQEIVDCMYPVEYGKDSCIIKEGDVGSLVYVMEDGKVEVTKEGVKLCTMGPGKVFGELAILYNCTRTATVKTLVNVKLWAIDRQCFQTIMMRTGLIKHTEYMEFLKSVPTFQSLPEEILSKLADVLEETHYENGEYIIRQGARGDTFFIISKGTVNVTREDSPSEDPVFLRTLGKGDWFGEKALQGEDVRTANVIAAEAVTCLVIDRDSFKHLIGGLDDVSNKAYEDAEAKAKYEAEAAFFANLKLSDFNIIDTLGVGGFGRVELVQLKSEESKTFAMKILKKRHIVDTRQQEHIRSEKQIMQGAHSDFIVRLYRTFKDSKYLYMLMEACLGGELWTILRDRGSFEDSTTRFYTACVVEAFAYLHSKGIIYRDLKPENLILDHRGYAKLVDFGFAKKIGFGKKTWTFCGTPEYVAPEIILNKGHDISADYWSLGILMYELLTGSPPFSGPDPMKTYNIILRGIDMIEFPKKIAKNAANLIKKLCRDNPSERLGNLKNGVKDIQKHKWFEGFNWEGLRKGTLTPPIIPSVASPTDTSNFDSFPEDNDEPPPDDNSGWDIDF

[6] = target: CDK6/cyclin D3 (Homo sapiens) (UniProt P30281+Q00534); assay: Enzymatic radiometric [Km ATP] KinaseProfiler LeadHunter assay, kinase: CDK6/cyclinD3, catalogue number: 14-519KP The assay has been performed by Eurofins Discovery.; format: protein-complex assay; conditions: ATP concentration 200.0 uM, Test compound concentration 10.0 uM
[7] = target: Calcium/calmodulin-dependent protein kinase type 1 (Homo sapiens) (UniProt Q14012); assay: Enzymatic radiometric [Km ATP] KinaseProfiler LeadHunter assay, kinase: CaMKI, catalogue number: 14-663KP The assay has been performed by Eurofins Discovery.; conditions: ATP concentration 200.0 uM, Test compound concentration 10.0 uM
Sequence of Calcium/calmodulin-dependent protein kinase type 1 (Homo sapiens) (Q14012 whole entry, looked up): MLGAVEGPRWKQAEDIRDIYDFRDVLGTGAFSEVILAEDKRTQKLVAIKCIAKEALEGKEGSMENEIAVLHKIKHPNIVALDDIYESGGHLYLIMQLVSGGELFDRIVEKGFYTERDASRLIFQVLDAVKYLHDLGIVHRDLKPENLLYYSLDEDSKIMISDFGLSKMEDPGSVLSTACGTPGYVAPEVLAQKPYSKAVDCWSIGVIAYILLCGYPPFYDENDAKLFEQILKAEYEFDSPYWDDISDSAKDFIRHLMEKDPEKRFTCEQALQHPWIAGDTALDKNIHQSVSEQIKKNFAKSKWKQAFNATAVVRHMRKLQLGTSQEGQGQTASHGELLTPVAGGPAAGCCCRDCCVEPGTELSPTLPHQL

Sequence of Tyrosine-protein kinase Lyn (Homo sapiens) (P07948 2-512 limits assumed): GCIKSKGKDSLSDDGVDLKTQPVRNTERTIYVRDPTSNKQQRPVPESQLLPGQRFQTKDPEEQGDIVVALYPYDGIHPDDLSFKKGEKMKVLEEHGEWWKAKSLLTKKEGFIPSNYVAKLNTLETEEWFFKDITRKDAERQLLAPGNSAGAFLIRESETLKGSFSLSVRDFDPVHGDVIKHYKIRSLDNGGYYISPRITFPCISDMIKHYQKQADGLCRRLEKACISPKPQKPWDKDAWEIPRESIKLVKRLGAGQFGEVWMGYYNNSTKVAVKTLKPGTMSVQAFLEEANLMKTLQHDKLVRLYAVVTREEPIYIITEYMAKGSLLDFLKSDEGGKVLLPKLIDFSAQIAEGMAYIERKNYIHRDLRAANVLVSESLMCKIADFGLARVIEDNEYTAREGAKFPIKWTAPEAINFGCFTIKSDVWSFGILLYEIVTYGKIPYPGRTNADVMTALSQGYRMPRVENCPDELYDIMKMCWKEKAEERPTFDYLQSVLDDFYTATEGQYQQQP
Sequence of Serine/threonine-protein kinase 10 (Homo sapiens) (O94804 whole entry, looked up): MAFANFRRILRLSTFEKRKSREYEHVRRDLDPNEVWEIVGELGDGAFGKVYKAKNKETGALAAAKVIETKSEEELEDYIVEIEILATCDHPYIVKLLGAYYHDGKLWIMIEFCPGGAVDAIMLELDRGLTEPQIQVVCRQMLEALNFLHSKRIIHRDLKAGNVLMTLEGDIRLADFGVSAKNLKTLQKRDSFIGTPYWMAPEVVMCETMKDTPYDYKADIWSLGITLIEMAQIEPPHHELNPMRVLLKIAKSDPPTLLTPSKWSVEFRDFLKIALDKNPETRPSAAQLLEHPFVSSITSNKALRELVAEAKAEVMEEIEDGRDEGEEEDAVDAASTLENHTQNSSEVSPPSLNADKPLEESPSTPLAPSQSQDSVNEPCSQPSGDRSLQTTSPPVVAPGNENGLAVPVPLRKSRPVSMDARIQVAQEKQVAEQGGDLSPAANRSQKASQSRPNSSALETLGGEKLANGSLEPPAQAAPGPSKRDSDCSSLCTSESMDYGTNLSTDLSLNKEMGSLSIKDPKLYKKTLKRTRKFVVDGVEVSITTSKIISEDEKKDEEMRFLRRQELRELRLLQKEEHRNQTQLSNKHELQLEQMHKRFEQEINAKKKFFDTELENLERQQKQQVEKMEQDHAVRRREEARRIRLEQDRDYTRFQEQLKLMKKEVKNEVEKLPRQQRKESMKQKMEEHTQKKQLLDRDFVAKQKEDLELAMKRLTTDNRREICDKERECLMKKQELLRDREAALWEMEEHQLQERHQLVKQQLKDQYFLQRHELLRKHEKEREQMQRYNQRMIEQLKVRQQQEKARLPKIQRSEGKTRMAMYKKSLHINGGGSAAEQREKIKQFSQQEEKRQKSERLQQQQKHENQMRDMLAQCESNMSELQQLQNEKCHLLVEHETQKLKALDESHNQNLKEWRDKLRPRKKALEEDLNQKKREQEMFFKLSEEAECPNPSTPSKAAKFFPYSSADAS

Row | SMILES | Activity [1] | Activity [2] | Activity [3] | Activity [4] | Activity [5] | Activity [6] | Activity [7]
1 | CNC(=O)Cn1cc(-c2cc3c(N[C@@H](c4ccc5c(c4)S(=O)(=O)CCC5)C(C)C)ncnc3[nH]2)cn1 | 75% | 101% | 89% | 83% | 120% | 107% | 101%
2 | CC(C)[C@@H](Nc1ncnc2[nH]ccc12)c1ccc2c(c1)S(=O)(=O)CCC2 | 112% | 88% | 115% | 104% | 88% | 99% | 94%
3 | Cc1nn(C)cc1-c1cc2c(N[C@H](c3ccc4c(c3)S(=O)(=O)CCC4)C(C)C)ncnc2[nH]1 | 48% | 107% | 96% | 93% | 128% | 106% | 101%
4 | Cn1ncc(-c2cc3c(N[C@@H](c4ccc5c(n4)OCCO5)C(C)(C)C)ncnc3[nH]2)c1C#N | 101% | 132% | 110% | 122% | 127% | – | 87%
5 | CC(C)[C@H](Nc1ncnc2[nH]c(-c3cnn(C)c3C#N)cc12)c1ccc2c(n1)OCCO2 | 79% | 106% | 105% | 45% | 130% | 102% | 104%
6 | CNCc1cc(-c2cc3c(N[C@@H](c4ccc5c(c4)S(=O)(=O)CCC5)C(C)C)ncnc3[nH]2)co1 | 47% | 100% | 81% | 92% | 115% | 92% | 87%
7 | COc1ccc([C@H](Cc2nnn[nH]2)NC(=O)c2ncnc3[nH]ccc23)cc1 | 108% | 109% | 100% | 102% | 121% | 102% | –
8 | COc1ccc([C@@H](Cc2nnn[nH]2)NC(=O)c2ncnc3[nH]ccc23)cc1 | 111% | 91% | 88% | 96% | 95% | 100% | 100%
9 | CC(C)[C@H](Nc1ncnc2[nH]ccc12)c1ccc2c(c1)S(=O)(=O)CCC2 | 104% | 112% | 86% | 102% | 123% | 105% | 92%
10 | CC(C)[C@@H](Nc1ncnc2[nH]c(-c3cnn(C)c3C#N)cc12)c1ccc2c(n1)OCCO2 | – | 100% and 99% | 116% and 107% | – | 100% and 123% | – | 104% and 95%
11 | C[C@H](C(=O)O)[C@@H](NC(=O)c1ncnc2[nH]ccc12)c1ccc(Br)cc1 | 94% | 106% | 87% | 97% | 118% | 97% | 101%
12 | CC(C)[C@@H](Nc1ncnc2[nH]c(C(=O)N[C@@H]3CCN(C)C3)cc12)c1ccc2c(c1)S(=O)(=O)CCC2 | 107% | 105% | 107% | 99% | 116% | 99% | 100%
